Read-outs that look alike come from different tables or passages of the source. Where a SMILES comes first, the peptide text is derived from it. [ ]: non-standard residue; d: D form. Nle = CCCC[C@H](N)C(=O)O
Target: T1, endogenous hPTHR1 (Homo sapiens, UniProt Q03431)
T1 construct: Saos-2, in which is endogenously expressed the hPTHR1; endogenous in cells
T1 sequence (Q03431 27-593): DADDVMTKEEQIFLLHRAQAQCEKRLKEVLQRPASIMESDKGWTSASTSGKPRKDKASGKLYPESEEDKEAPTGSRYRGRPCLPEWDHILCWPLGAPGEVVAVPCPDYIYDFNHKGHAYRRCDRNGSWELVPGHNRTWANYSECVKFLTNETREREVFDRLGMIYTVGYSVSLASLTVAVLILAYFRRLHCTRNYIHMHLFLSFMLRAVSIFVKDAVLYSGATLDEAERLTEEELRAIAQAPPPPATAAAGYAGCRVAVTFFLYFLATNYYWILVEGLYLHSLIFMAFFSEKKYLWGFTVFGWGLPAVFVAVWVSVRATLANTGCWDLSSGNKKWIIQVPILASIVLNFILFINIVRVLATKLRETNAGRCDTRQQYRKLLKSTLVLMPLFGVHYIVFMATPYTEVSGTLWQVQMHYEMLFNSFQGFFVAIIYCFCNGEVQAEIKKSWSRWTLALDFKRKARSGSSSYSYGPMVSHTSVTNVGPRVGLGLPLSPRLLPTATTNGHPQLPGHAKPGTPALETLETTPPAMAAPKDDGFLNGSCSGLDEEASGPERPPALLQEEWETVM
Assay: Antagonism of PTH(1-34)- and PTHrP(1-36)-induced cAMP response (GloSensor) in SGS-72 cells
Format: cell-based
Summary of the method: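 SaOS2-derived SGS-72 cells, which express endogenous hPTHR1 and a stable GloSensor cAMP reporter, were loaded with 0.5 mM luciferin for 15 min at room temperature in CO2-independent medium with 0.1% BSA. Antagonist was tested against PTH(1-34) or PTHrP(1-36), with luminescence taken at the agonist-alone maximum; pIC50 came from four-parameter fits.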

[1] = IC50 PTH(1-34) (Table 6, nanomolar value), antagonist pre-treatment 15 minutes, PTH(1-34) 0.3 nM

| IC50 [1] [nM] | Compound | also measured |
| --- | --- | --- |
| 1.23 | CC[C@H](C)[C@H](NC(=O)[C@H](CCC(=O)O)NC(=O)[C@H](C)NC(=O)[C@@H](NC(=O)[C@H](Cc1c[nH]cn1)NC(=O)[C@@H](NC(=O)[C@H](CCC(=O)O)NC(=O)[C@H](C)NC(=O)[C@@H](NC(=O)[C@H](CC(C)C)NC(=O)[C@H](CCCCN)NC(=O)[C@H](Cc1c[nH]cn1)NC(=O)[C@H](CC(C)C)NC(=O)[C@H](Cc1c[nH]c2ccccc12)NC(=O)[C@H](C)NC(=O)[C@H](CCCNC(=N)N)NC(=O)[C@H](CCCNC(=N)N)NC(=O)[C@H](CCCNC(=N)N)NC(=O)[C@H](C)NC(=O)[C@H](CC(=O)O)NC(=O)[C@H](CCC(N)=O)NC(=O)[C@@H](NC(=O)[C@H](Cc1c[nH]c2ccccc12)NC(=O)[C@H](CCCCN)NC(=O)[C@@H](Cc1c[nH]c2ccccc12)NC(=O)[C@H](CCCNC(=N)N)NC(=O)[C@H](CCC(N)=O)NC(=O)[C@H](Cc1c[nH]cn1)NC(=O)[C@H](CCSC)NC(=O)[C@@H](N)CC(C)C)[C@@H](C)CC)[C@@H](C)CC)[C@@H](C)CC)[C@@H](C)O)C(N)=O [compound 1990, dW12, W23-LA-PTH(7-36)-1990] (H-LMHQR[dW]KWIQDARRRAWLHKLIAEIHTAEI-NH2; N-terminus assumed) | – |
| 1.55 | CCCC[C@H](NC(=O)[C@@H](N)CC(C)C)C(=O)N[C@@H](Cc1c[nH]cn1)C(=O)N[C@@H](CCC(N)=O)C(=O)N[C@@H](CCCNC(=N)N)C(=O)N[C@H](Cc1c[nH]c2ccccc12)C(=O)N[C@@H](CCCCN)C(=O)N[C@@H](Cc1c[nH]c2ccccc12)C(=O)N[C@H](C(=O)N[C@@H](CCC(N)=O)C(=O)N[C@@H](CC(=O)O)C(=O)N[C@@H](C)C(=O)N[C@@H](CCCNC(=N)N)C(=O)N[C@@H](CCCNC(=N)N)C(=O)N[C@@H](CCCNC(=N)N)C(=O)N[C@@H](C)C(=O)N[C@@H](Cc1c[nH]c2ccccc12)C(=O)N[C@@H](CC(C)C)C(=O)N[C@@H](Cc1c[nH]cn1)C(=O)N[C@@H](CCCCN)C(=O)N[C@@H](CC(C)C)C(=O)N[C@H](C(=O)N[C@@H](C)C(=O)N[C@@H](CCC(=O)O)C(=O)N[C@H](C(=O)N[C@@H](Cc1c[nH]cn1)C(=O)N[C@H](C(=O)N[C@@H](C)C(=O)N[C@@H](CCC(=O)O)C(=O)N[C@H](C(N)=O)[C@@H](C)CC)[C@@H](C)O)[C@@H](C)CC)[C@@H](C)CC)[C@@H](C)CC [compound 1992, Nle8, dW12, W23-LA-PTH(7-36)-1992] (H-L[Nle]HQR[dW]KWIQDARRRAWLHKLIAEIHTAEI-NH2; N-terminus assumed) | – |

More lines, now with the values behind:

| Compound | IC50 [1] [nM] | also measured |
| --- | --- | --- |
| CC[C@H](C)[C@H](N)C(=O)N[C@@H](CCC(N)=O)C(=O)N[C@@H](CC(C)C)C(=O)N[C@@H](CCSC)C(=O)N[C@@H](Cc1c[nH]cn1)C(=O)N[C@@H](CCC(N)=O)C(=O)N[C@@H](CCCNC(=N)N)C(=O)N[C@H](Cc1c[nH]c2ccccc12)C(=O)N[C@@H](CCCCN)C(=O)N[C@@H](Cc1c[nH]c2ccccc12)C(=O)N[C@H](C(=O)N[C@@H](CCC(N)=O)C(=O)N[C@@H](CC(=O)O)C(=O)N[C@@H](C)C(=O)N[C@@H](CCCNC(=N)N)C(=O)N[C@@H](CCCNC(=N)N)C(=O)N[C@@H](CCCNC(=N)N)C(=O)N[C@@H](C)C(=O)N[C@@H](Cc1c[nH]c2ccccc12)C(=O)N[C@@H](CC(C)C)C(=O)N[C@@H](Cc1c[nH]cn1)C(=O)N[C@@H](CCCCN)C(=O)N[C@@H](CC(C)C)C(=O)N[C@H](C(=O)N[C@@H](C)C(=O)N[C@@H](CCC(=O)O)C(=O)N[C@H](C(=O)N[C@@H](Cc1c[nH]cn1)C(=O)N[C@H](C(=O)N[C@@H](C)C(=O)N[C@@H](CCC(=O)O)C(=O)N[C@H](C(N)=O)[C@@H](C)CC)[C@@H](C)O)[C@@H](C)CC)[C@@H](C)CC)[C@@H](C)CC [compound 1949, dW12, W23-LA-PTH(5-36)] (H-IQLMHQR[dW]KWIQDARRRAWLHKLIAEIHTAEI-NH2; N-terminus assumed) | 1.45 | IC50 (antagonist pre-treatment 10 minutes, PTHrP(1-36) 0.3 nM, seven experiments, read-out: corresponding nanomolar value vs. PTHrP(1-36) (Table 5)): 1 nM; IC50 (antagonist pre-treatment 10 minutes, PTHrP(1-36) 0.3 nM, seven experiments, read-out: pIC50 vs. PTHrP(1-36) (Table 5) (converted)): 0.794 nM; IC50 (antagonist pre-treatment 15 minutes, PTHrP(1-36) 0.3 nM, read-out: IC50 PTHrP(1-36) (Table 6, nanomolar value)): 1.21 nM; IC50 (corresponding nanomolar value vs. PTH(1-34) (Table 5), antagonist pre-treatment 10 minutes, PTH(1-34) 0.3 nM, seven experiments): 1 nM; IC50 (pIC50 vs. PTH(1-34) (Table 5), antagonist pre-treatment 10 minutes, PTH(1-34) 0.3 nM, seven experiments): 0.776 nM |
| CCCC[C@H](NC(=O)[C@@H](N)CC(C)C)C(=O)N[C@@H](Cc1c[nH]cn1)C(=O)N[C@@H](CCC(N)=O)C(=O)N[C@@H](CC(C)C)C(=O)N[C@H](Cc1c[nH]c2ccccc12)C(=O)N[C@@H](CCCCN)C(=O)N[C@@H](Cc1c[nH]c2ccccc12)C(=O)N[C@H](C(=O)N[C@@H](CCC(N)=O)C(=O)N[C@@H](CC(=O)O)C(=O)N[C@@H](C)C(=O)N[C@@H](CCCNC(=N)N)C(=O)N[C@@H](CCCNC(=N)N)C(=O)N[C@@H](CCCNC(=N)N)C(=O)N[C@@H](C)C(=O)N[C@@H](Cc1c[nH]c2ccccc12)C(=O)N[C@@H](CC(C)C)C(=O)N[C@@H](Cc1c[nH]cn1)C(=O)N[C@@H](CCCCN)C(=O)N[C@@H](CC(C)C)C(=O)N[C@H](C(=O)N[C@@H](C)C(=O)N[C@@H](CCC(=O)O)C(=O)N[C@H](C(=O)N[C@@H](Cc1c[nH]cn1)C(=O)N[C@H](C(=O)N[C@@H](C)C(=O)N[C@@H](CCC(=O)O)C(=O)N[C@H](C(N)=O)[C@@H](C)CC)[C@@H](C)O)[C@@H](C)CC)[C@@H](C)CC)[C@@H](C)CC [compound 1997, Nle8,L11, dW12, W23-LA-PTH(7-36)-1997] (H-L[Nle]HQL[dW]KWIQDARRRAWLHKLIAEIHTAEI-NH2; N-terminus assumed) | 2.1 | – |
| CCCC[C@H](NC(=O)[C@H](CC(C)C)NC(=O)[C@H](CCC(N)=O)NC(=O)[C@@H](N)[C@@H](C)CC)C(=O)N[C@@H](Cc1c[nH]cn1)C(=O)N[C@@H](CCC(N)=O)C(=O)N[C@@H](CC(C)C)C(=O)N[C@H](Cc1c[nH]c2ccccc12)C(=O)N[C@@H](CCCCN)C(=O)N[C@@H](Cc1c[nH]c2ccccc12)C(=O)N[C@H](C(=O)N[C@@H](CCC(N)=O)C(=O)N[C@@H](CC(=O)O)C(=O)N[C@@H](C)C(=O)N[C@@H](CCCNC(=N)N)C(=O)N[C@@H](CCCNC(=N)N)C(=O)N[C@@H](CCCNC(=N)N)C(=O)N[C@@H](C)C(=O)N[C@@H](Cc1c[nH]c2ccccc12)C(=O)N[C@@H](CC(C)C)C(=O)N[C@@H](Cc1c[nH]cn1)C(=O)N[C@@H](CCCCN)C(=O)N[C@@H](CC(C)C)C(=O)N[C@H](C(=O)N[C@@H](C)C(=O)N[C@@H](CCC(=O)O)C(=O)N[C@H](C(=O)N[C@@H](Cc1c[nH]cn1)C(=O)N[C@H](C(=O)N[C@@H](C)C(=O)N[C@@H](CCC(=O)O)C(=O)N[C@H](C(N)=O)[C@@H](C)CC)[C@@H](C)O)[C@@H](C)CC)[C@@H](C)CC)[C@@H](C)CC [compound 1999, Nle8, L11, dW12, W23-LA-PTH(5-36)-1999] (H-IQL[Nle]HQL[dW]KWIQDARRRAWLHKLIAEIHTAEI-NH2; N-terminus assumed) | 2.75 | – |
| CC[C@H](C)[C@H](NC(=O)[C@H](CCC(=O)O)NC(=O)[C@H](C)NC(=O)[C@@H](NC(=O)[C@H](Cc1c[nH]cn1)NC(=O)[C@@H](NC(=O)[C@H](CCC(=O)O)NC(=O)[C@H](C)NC(=O)[C@@H](NC(=O)[C@H](CC(C)C)NC(=O)[C@H](CCCCN)NC(=O)[C@H](Cc1c[nH]cn1)NC(=O)[C@H](CC(C)C)NC(=O)[C@H](Cc1c[nH]c2ccccc12)NC(=O)[C@H](C)NC(=O)[C@H](CCCNC(=N)N)NC(=O)[C@H](CCCNC(=N)N)NC(=O)[C@H](CCCNC(=N)N)NC(=O)[C@H](C)NC(=O)[C@H](CC(=O)O)NC(=O)[C@H](CCC(N)=O)NC(=O)[C@@H](NC(=O)[C@H](Cc1c[nH]c2ccccc12)NC(=O)[C@H](CCCCN)NC(=O)[C@@H](Cc1c[nH]c2ccccc12)NC(=O)[C@H](CC(C)C)NC(=O)[C@H](CCC(N)=O)NC(=O)[C@H](Cc1c[nH]cn1)NC(=O)[C@H](CCSC)NC(=O)[C@@H](N)CC(C)C)[C@@H](C)CC)[C@@H](C)CC)[C@@H](C)CC)[C@@H](C)O)C(N)=O [compound 2001, L11, dW12, W23-LA-PTH(7-36)-2001] (H-LMHQL[dW]KWIQDARRRAWLHKLIAEIHTAEI-NH2; N-terminus assumed) | 2.08 | – |

— patent publication US20190119348A1, “PARATHYROID HORMONE RECEPTOR 1 ANTAGONIST AND INVERSE AGONIST POLYPEPTIDES AND METHODS OF THEIR USE” (The General Hospital Corporation, priority 2016, published 2019)
